Measured values taken from the supplement of paper PMC10307832.

Key:
Experiment in all cases: relative viability (nuclei count vs DMSO), 5 days (fraction); higher = more cells survive
BMX-IN-1 + Bortezomib = compound: C=CC(=O)Nc1cc(-n2c(=O)ccc3cnc4ccc(-c5ccc(NS(C)(=O)=O)cc5)cc4c32)ccc1C [BMX-IN-1] + CC(C)C[C@H](NC(=O)[C@H](Cc1ccccc1)NC(=O)c1cnccn1)B(O)O [Bortezomib] (partner 0.002 µM)
Summary of the method: (§1)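 Relative viability was taken as the ratio of nuclei in treated wells to nuclei in vehicle wells. Lung cancer cell lines in 1536-well plates received compounds by pin tool one day after seeding, either one drug alone or a fixed anchor-drug dose plus five library-drug doses (not always all listed) in √10 steps. Nuclei were counted on 4× images after 5 days of treatment, and values are medians of duplicate plates.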

Ibrutinib + Navitoclax = compound: C=CC(=O)N1CCC[C@@H](n2nc(-c3ccc(Oc4ccccc4)cc3)c3c(N)ncnc32)C1 [Ibrutinib] + CC1(C)CCC(c2ccc(Cl)cc2)=C(CN2CCN(c3ccc(C(=O)NS(=O)(=O)c4ccc(N[C@H](CCN5CCOCC5)CSc5ccccc5)c(S(=O)(=O)C(F)(F)F)c4)cc3)CC2)C1 [Navitoclax] (partner 0.5 µM)
Summary of the method: as §1

BMX-IN-1 + Alpelisib = compound: C=CC(=O)Nc1cc(-n2c(=O)ccc3cnc4ccc(-c5ccc(NS(C)(=O)=O)cc5)cc4c32)ccc1C [BMX-IN-1] + Cc1nc(NC(=O)N2CCC[C@H]2C(N)=O)sc1-c1ccnc(C(C)(C)C(F)(F)F)c1 [Alpelisib] (partner 2 µM)
Summary of the method: as §1

Ibrutinib + Vorinostat = compound: C=CC(=O)N1CCC[C@@H](n2nc(-c3ccc(Oc4ccccc4)cc3)c3c(N)ncnc32)C1 [Ibrutinib] + O=C(CCCCCCC(=O)Nc1ccccc1)NO [Vorinostat] (partner 1 µM)
Summary of the method: as §1

Cell Line	relative viability (BMX-IN-1 + Bortezomib; first compound 0.02 µM)	relative viability (BMX-IN-1 + Bortezomib; first compound 0.2 µM)	relative viability (BMX-IN-1 + Bortezomib; first compound 2 µM)	relative viability (Ibrutinib + Navitoclax; first compound 0.005 µM)	relative viability (Ibrutinib + Navitoclax; first compound 0.01581 µM)	relative viability (Ibrutinib + Navitoclax; first compound 0.05 µM)	relative viability (Ibrutinib + Navitoclax; first compound 0.5 µM)	relative viability (BMX-IN-1 + Alpelisib; first compound 0.02 µM)	relative viability (BMX-IN-1 + Alpelisib; first compound 0.2 µM)	relative viability (BMX-IN-1 + Alpelisib; first compound 2 µM)	relative viability (Ibrutinib + Vorinostat; first compound 0.005 µM)	relative viability (Ibrutinib + Vorinostat; first compound 0.01581 µM)	relative viability (Ibrutinib + Vorinostat; first compound 0.05 µM)	relative viability (Ibrutinib + Vorinostat; first compound 0.1581 µM)	relative viability (Ibrutinib + Vorinostat; first compound 0.5 µM)	relative viability (BMX-IN-1 + Bortezomib; first compound 0.6325 µM)	relative viability (Ibrutinib + Navitoclax; first compound 0.1581 µM)	relative viability (BMX-IN-1 + Alpelisib; first compound 0.6325 µM)
NCI-H1993	1.1	1.11	0.959	0.807	0.7	0.75	0.742	0.811	0.752	0.668	0.443	0.759	1.13	1.01	0.486	–	–	–
NCI-H1915	1.31	1.14	0.994	–	0.767	0.799	0.795	1.08	1.03	1.13	0.453	0.484	0.438	0.678	0.494	1.08	0.793	1.04
NCI-H727	1	0.869	0.939	0.475	0.405	0.374	0.42	0.499	0.671	0.578	1.11	1.18	1.26	0.808	1.12	1.05	0.449	0.766
NCI-H1734	1.05	1.24	1.17	0.839	0.821	0.794	0.726	0.668	0.717	0.652	0.74	0.789	0.781	0.92	0.772	0.964	0.869	0.783
A-427	1.03	1.06	0.985	0.861	0.923	0.985	0.92	1.04	1.11	1.14	0.883	0.875	0.887	–	0.867	1.18	0.98	1.04
NCI-H1437	0.567	0.472	0.456	1.14	–	1.11	1.14	1.26	0.953	1.05	0.865	0.919	0.908	0.854	1.02	0.586	1.13	1.1
PC-3 [JPC-3]	0.913	0.955	0.824	0.82	0.805	0.598	0.488	1.17	1.06	1.09	0.664	0.774	0.497	0.289	0.399	0.944	0.824	1.09
201T	1.13	1.07	1.1	1.22	1.17	1.17	1.17	1.02	1.02	1.02	0.94	0.982	0.969	0.883	0.889	1.12	1.22	0.987
PC-14	0.934	0.953	0.954	1.04	1.05	1.12	0.922	1.08	1.03	0.983	0.723	0.662	0.611	0.944	0.324	1.01	1.05	0.981
